Reference: patent US20220062240A1, “METHODS OF TREATING CANCER USING A CLK INHIBITOR” (BioSplice Therapeutics, Inc., priority 2018, published 2022)
Where two headings read alike, the source gives them in different places.

Legend:
CLK2 = target: T1, CLK2 (Homo sapiens, UniProt P49760); assay: CLK2 kinase activity assay (Z-lyte, Ser/Thr 6 peptide); type: biochemical; conditions: recombinant CLK2 kinase, ATP 60 μM; read-out: EC50
T1 construct: purchased Thermo Fisher (Life Technologies), Z'-LYTE Kinase Assay Kits
Protocol: All reactions were performed in duplicate.

BT-549 = assay: CellTiter-Glo Viability Assay, breast cancer; type: cell-based; conditions: Homo sapiens, 96 h; BT-549, breast cancer, four days; read-out: EC50
Protocol: (§1) Fifty-one human cancer cell lines (breast cancer (8 cell lines), colorectal cancer (6 cell lines), haematopoietic & lymphoid tumors (13 cell lines), liver cancer (3 cell lines), lung cancer (4 cell lines), ovarian cancer (4 cell lines), pancreatic cancer (8 cell lines), and prostate cancer (5 cell lines)) were tested to determine the effects of representative compounds of Formulas (I)-(XII) on cellular proliferation, as evaluated using the CellTiter-Glo® Viability Assay.
(§2) For the Cell Viability Assays, cells were plated at 300-3,000 cells/well in 384-well plates in their respective media containing 1% Penicillin-Streptomycin and incubated for four days at 37° C. and 5% CO2. Twenty-eight replicates of DMSO-treated cells served as controls and cells treated with compound were performed in duplicate.
(§3) After incubation, 10 μL of CellTiter-Glo® (Promega) was added to each well allowed to incubate for approximately 12 minutes. This reagent results in cell lysis and generation of a luminescent signal proportional to the amount of ATP present. The amount of ATP is directly proportional to the number of metabolically active, viable cells present in culture. The CellTiter-Glo® Assay generates a luminescent signal, produced by the luciferase reaction (Promega.com).
(§4) After incubation, the luminescence signal was read using an EnVision™ Multilabel Plate Reader (Perkin Elmer). Dose-response curves were generated and EC50 concentration values were calculated using Dotmatics' Studies Software (Bishops Stortford, UK).

CAMA1 = assay: CellTiter-Glo Viability Assay, breast cancer; type: cell-based; conditions: Homo sapiens, CAMA-1, 96 h; CAMA1, breast cancer, four days; read-out: EC50
Protocol: as §1, §2, §3, §4

DU4475 = assay: CellTiter-Glo Viability Assay, breast cancer; type: cell-based; conditions: Homo sapiens, DU-4475, 96 h; DU4475, breast cancer, four days; read-out: EC50
Protocol: as §1, §2, §3, §4

HCC1599 = assay: CellTiter-Glo Viability Assay, breast cancer; type: cell-based; conditions: Homo sapiens, 96 h; HCC1599, breast cancer, four days; read-out: EC50
Protocol: as §1, §2, §3, §4

MCF7 = assay: CellTiter-Glo Viability Assay, breast cancer; type: cell-based; conditions: Homo sapiens, 96 h; MCF7, breast cancer, four days; read-out: EC50
Protocol: as §1, §2, §3, §4

T47D = assay: CellTiter-Glo Viability Assay, breast cancer; type: cell-based; conditions: Homo sapiens, 96 h, breast cancer, four days, read-out: EC50
Protocol: as §1, §2, §3, §4

ZR-75-1 = assay: CellTiter-Glo Viability Assay, breast cancer; type: cell-based; conditions: Homo sapiens, 96 h; ZR-75-1, breast cancer, four days; read-out: EC50
Protocol: as §1, §2, §3, §4

all 50 cell lines = assay: CellTiter-Glo Viability Assay, average across all cell lines; type: cell-based; conditions: Homo sapiens; across all 50 cell lines; read-out: average EC50 for inhibition of cancer cell proliferation
Protocol: as §1, §2, §3, §4

[1] = tested on: colorectal cancer (6 cell lines); assay: CellTiter-Glo Viability Assay, colorectal cancer; type: cell-based; conditions: Homo sapiens, inhibition of cancer cell proliferation
Protocol: as §1, §2, §3, §4

[2] = tested on: haematopoietic & lymphoid tumors (13 cell lines); assay: CellTiter-Glo Viability Assay, haematopoietic & lymphoid tumors; type: cell-based; conditions: Homo sapiens, inhibition of cancer cell proliferation
Protocol: as §1, §2, §3, §4

[3] = tested on: liver cancer (3 cell lines); assay: CellTiter-Glo Viability Assay, liver cancer; type: cell-based; conditions: Homo sapiens, inhibition of cancer cell proliferation
Protocol: as §1, §2, §3, §4

[4] = tested on: lung cancer (4 cell lines); assay: CellTiter-Glo Viability Assay, lung cancer; type: cell-based; conditions: Homo sapiens, inhibition of cancer cell proliferation
Protocol: as §1, §2, §3, §4

[5] = tested on: ovarian cancer (4 cell lines); assay: CellTiter-Glo Viability Assay, ovarian cancer; type: cell-based; conditions: Homo sapiens, inhibition of cancer cell proliferation
Protocol: as §1, §2, §3, §4

[6] = tested on: pancreatic cancer (8 cell lines); assay: CellTiter-Glo Viability Assay, pancreatic cancer; type: cell-based; conditions: Homo sapiens, inhibition of cancer cell proliferation
Protocol: as §1, §2, §3, §4

[7] = tested on: prostate cancer (5 cell lines); assay: CellTiter-Glo Viability Assay, prostate cancer; type: cell-based; conditions: Homo sapiens
Protocol: as §1, §2, §3, §4

CLK3 = CLK3 (Homo sapiens, UniProt P49761); assay: CLK3 kinase activity assay (Z-lyte, Ser/Thr 18 peptide)
CLK3, sequence (P49761 whole entry): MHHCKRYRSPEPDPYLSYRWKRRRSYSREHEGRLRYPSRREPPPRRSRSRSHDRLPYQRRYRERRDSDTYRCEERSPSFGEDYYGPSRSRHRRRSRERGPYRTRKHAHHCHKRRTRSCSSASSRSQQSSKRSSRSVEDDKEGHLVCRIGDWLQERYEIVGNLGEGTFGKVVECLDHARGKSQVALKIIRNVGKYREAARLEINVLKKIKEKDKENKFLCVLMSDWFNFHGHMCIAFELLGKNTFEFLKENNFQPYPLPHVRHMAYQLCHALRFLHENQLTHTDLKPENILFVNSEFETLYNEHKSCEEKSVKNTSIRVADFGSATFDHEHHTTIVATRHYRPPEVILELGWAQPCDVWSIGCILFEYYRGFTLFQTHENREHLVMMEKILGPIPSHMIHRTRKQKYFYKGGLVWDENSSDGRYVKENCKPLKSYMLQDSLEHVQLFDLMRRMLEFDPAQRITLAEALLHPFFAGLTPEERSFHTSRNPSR

T1 sequence (P49760 whole entry): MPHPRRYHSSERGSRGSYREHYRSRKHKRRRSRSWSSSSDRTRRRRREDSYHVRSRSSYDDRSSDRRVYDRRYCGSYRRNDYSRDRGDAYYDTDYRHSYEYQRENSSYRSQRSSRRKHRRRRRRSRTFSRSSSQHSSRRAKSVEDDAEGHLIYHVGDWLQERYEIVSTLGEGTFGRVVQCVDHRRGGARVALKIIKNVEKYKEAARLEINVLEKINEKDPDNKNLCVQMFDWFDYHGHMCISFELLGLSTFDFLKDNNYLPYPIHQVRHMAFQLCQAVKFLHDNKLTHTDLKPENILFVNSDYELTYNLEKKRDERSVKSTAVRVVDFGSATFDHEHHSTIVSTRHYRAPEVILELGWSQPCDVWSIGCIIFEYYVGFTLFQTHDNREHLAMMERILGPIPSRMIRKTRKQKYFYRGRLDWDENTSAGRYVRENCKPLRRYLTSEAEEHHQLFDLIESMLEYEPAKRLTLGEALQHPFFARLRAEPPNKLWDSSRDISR

## CN1CCN(c2cc(C(=O)Nc3cc4cc(-c5cn(C)nn5)ccc4cn3)ccn2)CC1 [Compound 14]
CLK2
  EC50: 2 nM
BT-549
  EC50: 339 nM
CAMA1
  EC50: 329 nM
DU4475
  EC50: 137 nM
HCC1599
  EC50: 165 nM
MCF7
  EC50: 725 nM
T47D
  EC50: 503 nM
ZR-75-1
  EC50: 410 nM
All 50 cell lines
  EC50: 289 nM
[1]; HCT-116, HCT116 cell line, read-out: Colorectal cancer, EC50 (μM) HCT116
  EC50: 0.14 µM
[1]; HT-29, HT29 cell line, read-out: Colorectal cancer, EC50 (μM) HT29
  EC50: 0.295 µM
[1]; SW-620, SW620 cell line, read-out: Colorectal cancer, EC50 (μM) SW620
  EC50: 0.113 µM
[1]; DLD-1 cell line, read-out: Colorectal cancer, EC50 (μM) DLD-1
  EC50: 0.161 µM
[1]; SW48 cell line, read-out: Colorectal cancer, EC50 (μM) SW48
  EC50: 0.096 µM
[1]; SW480 cell line, read-out: Colorectal cancer, EC50 (μM) SW480
  EC50: 0.191 µM
[2]; DND41, DND-41 cell line, read-out: Haematopoietic & Lymphoid tumors, EC50 (μM) DND-41
  EC50: 0.216 µM
[2]; MV4-11, MV-4-11 cell line, read-out: Haematopoietic & Lymphoid tumors, EC50 (μM) MV-4-11
  EC50: 0.101 µM
[2]; Rec1, REC-1 cell line, read-out: Haematopoietic & Lymphoid tumors, EC50 (μM) REC-1
  EC50: 0.08 µM
[2]; SU-DHL-4, SUDHL4 cell line, read-out: Haematopoietic & Lymphoid tumors, EC50 (μM) SUDHL4
  EC50: 0.317 µM
[2]; HL-60 cell line, read-out: Haematopoietic & Lymphoid tumors, EC50 (μM) HL-60
  EC50: 0.719 µM
[2]; JM1 cell line, read-out: Haematopoietic & Lymphoid tumors, EC50 (μM) JM1
  EC50: 0.093 µM
[2]; JURKAT, Clone E6-1 cell line, read-out: Haematopoietic & Lymphoid tumors, EC50 (μM) JURKAT, Clone E6-1
  EC50: 0.511 µM
[2]; JeKo-1 cell line, read-out: Haematopoietic & Lymphoid tumors, EC50 (μM) JeKo-1
  EC50: 0.073 µM
[2]; KASUMI-1 cell line, read-out: Haematopoietic & Lymphoid tumors, EC50 (μM) KASUMI-1
  EC50: 0.174 µM
[2]; Loucy cell line, read-out: Haematopoietic & Lymphoid tumors, EC50 (μM) Loucy
  EC50: 0.192 µM
[2]; MOLT-4 cell line, read-out: Haematopoietic & Lymphoid tumors, EC50 (μM) MOLT-4
  EC50: 0.327 µM
[2]; TF-1 cell line, read-out: Haematopoietic & Lymphoid tumors, EC50 (μM) TF-1
  EC50: 0.367 µM
[2]; TOLEDO cell line, read-out: Haematopoietic & Lymphoid tumors, EC50 (μM) TOLEDO
  EC50: 0.104 µM
[3]; SNU-398, SNU398 cell line, read-out: Liver cancer, EC50 SNU398
  EC50: 69 nM
[3]; HEPG2 cell line, read-out: Liver cancer, EC50 HEPG2
  EC50: 431 nM
[3]; PLC/PRF/5 cell line, read-out: Liver cancer, EC50 PLC/PRF/5
  EC50: 541 nM
[4]; A-427, A427 cell line, read-out: Lung cancer, EC50 (μM) A427
  EC50: 0.303 µM
[4]; HCC78, HCC-78 cell line, read-out: Lung cancer, EC50 (μM) HCC-78
  EC50: 0.467 µM
[4]; NCI-H460 cell line, read-out: Lung cancer, EC50 (μM) NCI-H460
  EC50: 0.268 µM
[4]; NCI-H522 cell line, read-out: Lung cancer, EC50 (μM) NCI-H522
  EC50: 0.142 µM
[5]; PA-1, PA1 cell line, read-out: Ovarian cancer, EC50 (μM) PA1
  EC50: 0.186 µM
[5]; TOV112D, TOV-112D cell line, read-out: Ovarian cancer, EC50 (μM) TOV-112D
  EC50: 0.171 µM
[5]; OV-90 cell line, read-out: Ovarian cancer, EC50 (μM) OV-90
  EC50: 0.464 µM
[5]; OVCAR-3 cell line, read-out: Ovarian cancer, EC50 (μM) OVCAR-3
  EC50: 0.116 µM
[6]; BXPC-3, BxPC3 cell line, read-out: Pancreatic cancer, EC50 BxPC3
  EC50: 484 nM
[6]; CAPAN-1, Capan1 cell line, read-out: Pancreatic cancer, EC50 Capan1
  EC50: 225 nM
[6]; Capan-2, Capan2 cell line, read-out: Pancreatic cancer, EC50 Capan2
  EC50: 464 nM
[6]; MIA PaCa-2 cell line, read-out: Pancreatic cancer, EC50 MIA PaCa-2
  EC50: 134 nM
[6]; PANC 05.04 cell line, read-out: Pancreatic cancer, EC50 PANC 05.04
  EC50: 323 nM
[6]; PANC-1 cell line, read-out: Pancreatic cancer, EC50 PANC-1
  EC50: 429 nM
[6]; UPAFII cell line, read-out: Pancreatic cancer, EC50 UPAFII
  EC50: 157 nM
[7]; DU-145, read-out: Prostate cancer EC50 Du-145
  EC50: 325 nM
[7]; PC-3, PC3 cell line, inhibition of cancer cell proliferation, read-out: Prostate cancer EC50 PC3
  EC50: 240 nM
[7]; 22Rv1 cell line, inhibition of cancer cell proliferation, read-out: Prostate cancer EC50 22Rv1
  EC50: 263 nM
[7]; LNCap clone FGC cell line, inhibition of cancer cell proliferation, read-out: Prostate cancer EC50 LNCap clone FGC
  EC50: 422 nM
[7]; VCaP (Sigma) cell line, inhibition of cancer cell proliferation, read-out: Prostate cancer EC50 VCaP (Sigma)
  EC50: 588 nM
CLK3
  EC50: 24 nM
